Laboratory results reported in PubChem BioAssay (NCI).
Values joined by “and” are separate entries in the source; they are usually repeats but may differ in a detail not shown here. Equal entries are not always repeated.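 1) Cells in 96-well plates. 2) Compound, 48 h, 5 concentrations. 3) Linear interpolation between surrounding doses. 4) Unreached endpoint = highest concentration. GI50 is the concentration that inhibits growth by half. TGI marks complete inhibition of growth.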

Tests used:
Test in all cases: DTP human tumour cell line panel, 48 h
[1] = system: HS 578T breast
[2] = system: HT29 colon
[3] = system: M14 melanoma
[4] = system: NCI-H460 lung
[5] = system: OVCAR-5 ovarian
[6] = system: RXF 393 renal
[7] = system: SF-295 CNS
[8] = system: SF-539 CNS
[9] = system: SNB-19 CNS
[10] = system: NCI-H226 lung

Structure (SMILES) | GI50 [1] [µM] | TGI [1] [µM] | GI50 [2] [µM] | TGI [2] [µM] | GI50 [3] [µM] | TGI [3] [µM] | GI50 [4] [µM] | TGI [4] [µM] | GI50 [5] [µM] | TGI [5] [µM] | GI50 [6] [µM] | TGI [6] [µM] | GI50 [7] [µM] | TGI [7] [µM] | GI50 [8] [µM] | TGI [8] [µM] | GI50 [9] [µM] | TGI [9] | TGI [10] [µM] | GI50 [10] [µM]
COc1ccccc1C1=C(Nc2ccccc2)C(=O)NC1=O | 6.25 | > 25 | > 25 | > 25 | > 25 | > 25 | > 25 | > 25 | > 25 | > 25 | 7.87 | > 25 | > 25 | > 25 | > 25 | > 25 | > 25 | > 25 µM |  | 
Clc1ccc(-c2csc(Nc3cccc(-c4csc(-c5ccccc5)n4)c3)n2)cc1 | 20.6 | > 50 |  |  | 11.6 | 24.1 | 10.5 | 27.1 |  |  | 9.89 | 21.9 | 15.9 | > 50 |  |  | 13 | 27.3 µM |  | 
Cc1nnc2c3nnc(C)n3c3ccccc3n12 |  |  |  | > 100 |  | > 100 |  | > 100 |  | > 100 |  | > 100 |  | > 100 |  | > 100 |  | > 100 µM | > 100 | 
O=S(=O)(O)c1ccc(N=Nc2nc(C(F)(F)F)c(C(F)(F)F)[nH]2)cc1 |  |  |  | > 100 |  | 46.6 |  | > 100 |  | 36 |  | 32.9 |  | > 100 |  | 65.9 |  | 71.1 µM | > 100 | 
CN(C)C(=Nc1nc(=[N+](C)C)ss1)N(C)C |  |  |  | > 100 |  | > 100 |  | > 100 |  | > 100 |  | > 100 |  | > 100 |  | > 100 |  | > 100 µM | > 100 | 
COC(=O)C1=C(c2ccc(OC)c(OC)c2)OC(c2cc(OC)c(OC)c(OC)c2)C1 (configuration not stated) |  |  |  | > 100 |  | > 100 |  | > 100 |  | > 100 |  | 66.9 |  | > 100 |  | > 100 |  |  | > 100 | 
CN=C(NC(=S)N(C)C)N(C)C |  |  |  | > 100 |  | > 100 |  | > 100 |  | > 100 |  | > 100 |  | > 100 |  | > 100 |  | > 100 µM | > 100 | 
Cc1cn(C2C=CC(CO)O2)c(=O)[nH]c1=O (configuration not stated) |  | > 1000 |  | > 1000 |  | > 1000 |  |  |  | > 1000 |  |  |  | > 1000 |  | > 1000 |  | > 1000 µM | > 1000 | 
CC(=O)NC1C(OCc2ccccc2)OC(CO)C(O)C1OC(C)C(=O)N[C@@H](C)C(=O)N[C@H](CCC(=O)OCCNc1c2ccccc2nc2cccc([N+](=O)[O-])c12)C(N)=O (some centres not stated) |  |  |  | 0.00443 |  | 0.00251 |  | 0.00137 |  | 0.0061 |  | 0.00304 |  | 0.0339 |  | 0.0161 |  | 0.00277 µM and 0.00694 µM | 0.0217 | 
Brc1ccc2[nH]cc(-c3nc(-c4c[nH]c5ncccc45)cs3)c2c1 | 10.7 | > 100 |  |  | 2.7 | 8.6 | 3.12 | 10.9 | 4.49 | 17.6 | 1.64 | 8.56 | 2.74 | 7.31 | 5.37 | 23.9 | 5.29 | 19.8 µM | 21.7 | 5.02
C[N+](C)(C)CC1CCC/C1=N/O (configuration not stated) |  |  |  | > 100 |  | > 100 |  | > 100 |  | > 100 |  | > 100 |  | > 100 |  | > 100 |  | > 100 µM | > 100 | 
COC(=O)C(=CNC(N)=O)C(=O)OC |  | > 100 |  | > 100 |  | > 100 |  | > 100 |  | > 100 |  |  |  | > 100 |  | > 100 |  | > 100 µM |  | 
O=C(CC1(O)C(=O)Nc2ccc(Br)cc21)c1ccc(Cl)cc1Cl (configuration not stated) |  |  |  | > 100 |  | > 100 |  | > 100 |  | > 100 |  | > 100 |  | > 100 |  | > 100 |  | > 100 µM | > 100 | 
CS(=O)(=O)NNS(=O)(=O)c1ccccc1 |  |  |  | > 100 |  | > 100 |  | > 100 |  |  |  | > 100 |  | > 100 |  | > 100 |  | > 100 µM | > 100 | 
CCCCCCCCCCCCCCCCNCCCN(C)CCCN |  |  |  | 35.8 |  | 30.8 |  | 34.1 |  | 31.7 |  |  |  | 33.4 |  | 34.5 |  | 31.5 µM | 39.3 | 
Cc1cc(S(=O)(=O)/N=C/N(C)C)c(SC(=O)c2ccc(Cl)cc2)cc1Cl | 20.7 | 65 |  |  | 89.8 | > 100 | 56.5 | > 100 | 48.6 | > 100 | 11.5 | 35.7 | 50.9 | > 100 | 26.7 | 52.1 | 53.8 | > 100 µM | 87.2 | 27.8
O=C(O)C1CCCCC1c1c2ccc(=O)c(O)c-2oc2c(O)c(O)ccc12 (configuration not stated) |  | > 100 |  | > 100 |  | > 100 |  | > 100 |  | > 100 |  | > 100 |  | 56.4 |  |  |  | > 100 µM | 71.5 | 
COC(=O)CCC1CCc2c(OC)ccc(OC)c2C1=O (configuration not stated) |  |  |  | > 100 |  | > 100 |  | > 100 |  | > 100 |  | > 100 |  | > 100 |  | > 100 |  | > 100 µM |  | 
O=C(CCC(=O)Nc1ccc(Cl)c(Cl)c1)CC(=O)c1ccc(F)cc1 |  |  |  | > 100 |  | > 100 |  | > 100 |  | > 100 |  | > 100 |  | > 100 |  | > 100 |  | > 100 µM | > 100 | 
N#CC1CCCCOCCOCCOCCOCCOCCCCCC1=O (configuration not stated) |  |  |  | > 100 |  | > 100 |  | > 100 |  | > 100 |  | > 100 |  | > 100 |  |  |  | > 100 µM | > 100 | 
O=C(O)C1CC2(C1)CC(C(=O)O)C2 (configuration not stated) |  | > 100 |  | > 100 |  | > 100 |  | > 100 |  | > 100 |  | > 100 |  | > 100 |  | > 100 |  | > 100 µM |  | 
